Source: PMC5694347 (Clinical cancer research : an official journal of the …, 2015)
Marks after values point to notes of the source that are not given here.

System: patients with relapsed and/or refractory lymphoma or MM
Assay: Safety: adverse events graded by NCI CTCAE version 3.0
Conditions: for Peripheral neuropathies NEC, All grades / Peripheral neuropathies NEC, Grade ≥3: high-level term; for Patients with serious AEs (SAEs): eight patients

## NS(=O)(=O)OC[C@@H]1C[C@@H](n2ccc3c(N[C@H]4CCc5ccccc54)ncnc32)C[C@@H]1O [pevonedistat]
Schedule A, n=27
  ALT increased, All grades: 12 (44) n (%)
  AST increased, All grades: 12 (44) n (%)
  Abdominal discomfort, All grades: 1 (4) n (%)
  Abdominal discomfort, Grade ≥3: 0 n (%)
  Anemia, All grades: 7 (26) n (%)
  Anemia, Grade ≥3: 5 (19) n (%)
  Any AE, All grades: 27 (100) n (%)
  Any AE, Grade ≥3: 16 (59) n (%)
  Asthenia, All grades: 2 (7) n (%)
  Asthenia, Grade ≥3: 0 n (%)
  Back pain, All grades: 3 (11) n (%)
  Back pain, Grade ≥3: 0 n (%)
  Blood alkaline phosphatase increased, All grades: 6 (22) n (%)
  Blood alkaline phosphatase increased, Grade ≥3: 0 n (%)
  Blood creatinine increased, All grades: 4 (15) n (%)
  Blood creatinine increased, Grade ≥3: 0 n (%)
  Chills, All grades: 5 (19) n (%)
  Chills, Grade ≥3: 0 n (%)
  Constipation, All grades: 10 (37) n (%)
  Constipation, Grade ≥3: 0 n (%)
  Cough, All grades: 2 (7) n (%)
  Cough, Grade ≥3: 0 n (%)
  Decreased appetite, All grades: 6 (22) n (%)
  Decreased appetite, Grade ≥3: 0 n (%)
  Dehydration, All grades: 2 (7) n (%)
  Dehydration, Grade ≥3: 0 n (%)
  Diarrhea, All grades: 7 (26) n (%)
  Diarrhea, Grade ≥3: 1 (4) n (%)
  Dizziness, All grades: 6 (22) n (%)
  Dizziness, Grade ≥3: 0 n (%)
  Dyspepsia, All grades: 0 n (%)
  Dyspepsia, Grade ≥3: 0 n (%)
  Dyspnea exertional, All grades: 0 n (%)
  Dyspnea exertional, Grade ≥3: 0 n (%)
  Dyspnea, All grades: 5 (19) n (%)
  Dyspnea, Grade ≥3: 1 (4) n (%)
  Fatigue, All grades: 18 (67) n (%)
  Fatigue, Grade ≥3: 2 (7) n (%)
  Headache, All grades: 7 (26) n (%)
  Headache, Grade ≥3: 0 n (%)
  Hyperbilirubinemia, All grades: 1 (4) n (%)
  Hyperbilirubinemia, Grade ≥3: 0 n (%)
  Hypercalcemia, All grades: 5 (19) n (%)
  Hypercalcemia, Grade ≥3: 2 (7) n (%)
  Hyperkalemia, All grades: 4 (15) n (%)
  Hyperkalemia, Grade ≥3: 1 (4) n (%)
  Hypomagnesemia, All grades: 6 (22) n (%)
  Hypomagnesemia, Grade ≥3: 0 n (%)
  Hypophosphatemia, All grades: 5 (19) n (%)
  Hypophosphatemia, Grade ≥3: 3 (11) n (%)
  Insomnia, All grades: 3 (11) n (%)
  Insomnia, Grade ≥3: 0 n (%)
  Muscle spasms, All grades: 4 (15) n (%)
  Myalgia, All grades: 10 (37) n (%)
  Myalgia, Grade ≥3: 0 n (%)
  Nausea, All grades: 12 (44) n (%)
  Nausea, Grade ≥3: 0 n (%)
  Neutropenia, All grades: 2 (7) n (%)
  Neutropenia, Grade ≥3: 2 (7) n (%)
  Pain in extremity, All grades: 4 (15) n (%)
  Pain in extremity, Grade ≥3: 0 n (%)
  Pain, All grades: 6 (22) n (%)
  Pain, Grade ≥3: 1 (4) n (%)
  Paresthesia, All grades: 2 (7) n (%)
  Paresthesia, Grade ≥3: 0 n (%)
  Peripheral edema, All grades: 3 (11) n (%)
  Peripheral edema, Grade ≥3: 0 n (%)
  Pneumonia, All grades: 1 (4) n (%)
  Pneumonia, Grade ≥3: 1 (4) n (%)
  Productive cough, All grades: 2 (7) n (%)
  Productive cough, Grade ≥3: 0 n (%)
  Pyrexia, All grades: 11 (41) n (%)
  Pyrexia, Grade ≥3: 0 n (%)
  Sinus tachycardia, All grades: 2 (7) n (%)
  Sinus tachycardia, Grade ≥3: 1 (4) n (%)
  Thrombocytopenia, All grades: 3 (11) n (%)
  Thrombocytopenia, Grade ≥3: 1 (4) n (%)
  Upper respiratory tract infection, All grades: 3 (11) n (%)
  Upper respiratory tract infection, Grade ≥3: 0 n (%)
  Vision blurred, All grades: 5 (19) n (%)
  Vision blurred, Grade ≥3: 0 n (%)
  Vomiting, All grades: 7 (26) n (%)
  Vomiting, Grade ≥3: 0 n (%)
  Weight decreased, All grades: 1 (4) n (%)
  Weight decreased, Grade ≥3: 0 n (%)
  Peripheral neuropathies NEC, All grades: 3 (11) n (%)
  Peripheral neuropathies NEC, Grade ≥3: 0 n (%)
Schedule A, n=27, 1 DLT
  ALT increased, Grade ≥3: 1 (4) ^a n (%)
  AST increased, Grade ≥3: 2 (7) ^a n (%)
  Muscle spasms, Grade ≥3: 1 (4) ^a n (%)
Schedule B, n=17
  ALT increased, All grades: 4 (24) n (%)
  ALT increased, Grade ≥3: 1 (6) n (%)
  AST increased, All grades: 2 (12) n (%)
  AST increased, Grade ≥3: 0 n (%)
  Abdominal discomfort, All grades: 3 (18) n (%)
  Abdominal discomfort, Grade ≥3: 0 n (%)
  Anemia, All grades: 3 (18) n (%)
  Anemia, Grade ≥3: 1 (6) n (%)
  Any AE, All grades: 17 (100) n (%)
  Any AE, Grade ≥3: 12 (71) n (%)
  Asthenia, All grades: 3 (18) n (%)
  Asthenia, Grade ≥3: 0 n (%)
  Back pain, All grades: 4 (24) n (%)
  Back pain, Grade ≥3: 0 n (%)
  Blood alkaline phosphatase increased, All grades: 1 (6) n (%)
  Blood alkaline phosphatase increased, Grade ≥3: 0 n (%)
  Blood creatinine increased, All grades: 0 n (%)
  Blood creatinine increased, Grade ≥3: 0 n (%)
  Chills, All grades: 6 (35) n (%)
  Chills, Grade ≥3: 0 n (%)
  Constipation, All grades: 5 (29) n (%)
  Constipation, Grade ≥3: 0 n (%)
  Cough, All grades: 5 (29) n (%)
  Cough, Grade ≥3: 0 n (%)
  Decreased appetite, All grades: 10 (59) n (%)
  Decreased appetite, Grade ≥3: 0 n (%)
  Dehydration, All grades: 3 (18) n (%)
  Dehydration, Grade ≥3: 1 (6) n (%)
  Diarrhea, All grades: 8 (47) n (%)
  Diarrhea, Grade ≥3: 0 n (%)
  Dizziness, All grades: 8 (47) n (%)
  Dizziness, Grade ≥3: 0 n (%)
  Dyspepsia, All grades: 3 (18) n (%)
  Dyspepsia, Grade ≥3: 0 n (%)
  Dyspnea exertional, All grades: 3 (18) n (%)
  Dyspnea exertional, Grade ≥3: 0 n (%)
  Dyspnea, All grades: 4 (24) n (%)
  Dyspnea, Grade ≥3: 1 (6) n (%)
  Fatigue, All grades: 12 (71) n (%)
  Fatigue, Grade ≥3: 1 (6) n (%)
  Headache, All grades: 9 (53) n (%)
  Headache, Grade ≥3: 0 n (%)
  Hyperbilirubinemia, All grades: 5 (29) n (%)
  Hyperbilirubinemia, Grade ≥3: 1 (6) n (%)
  Hypercalcemia, All grades: 1 (6) n (%)
  Hypercalcemia, Grade ≥3: 0 n (%)
  Hyperkalemia, All grades: 0 n (%)
  Hyperkalemia, Grade ≥3: 0 n (%)
  Hypomagnesemia, All grades: 1 (6) n (%)
  Hypomagnesemia, Grade ≥3: 0 n (%)
  Hypophosphatemia, All grades: 1 (6) n (%)
  Hypophosphatemia, Grade ≥3: 1 (6) n (%)
  Insomnia, All grades: 4 (24) n (%)
  Insomnia, Grade ≥3: 0 n (%)
  Muscle spasms, All grades: 10 (59) n (%)
  Muscle spasms, Grade ≥3: 1 (6) n (%)
  Myalgia, All grades: 10 (59) n (%)
  Myalgia, Grade ≥3: 0 n (%)
  Nausea, All grades: 13 (76) n (%)
  Nausea, Grade ≥3: 0 n (%)
  Neutropenia, All grades: 2 (12) n (%)
  Neutropenia, Grade ≥3: 2 (12) n (%)
  Pain in extremity, All grades: 5 (29) n (%)
  Pain in extremity, Grade ≥3: 0 n (%)
  Pain, All grades: 5 (29) n (%)
  Pain, Grade ≥3: 1 (6) n (%)
  Paresthesia, All grades: 5 (29) n (%)
  Paresthesia, Grade ≥3: 0 n (%)
  Peripheral edema, All grades: 3 (18) n (%)
  Peripheral edema, Grade ≥3: 0 n (%)
  Pneumonia, All grades: 3 (18) n (%)
  Pneumonia, Grade ≥3: 2 (12) n (%)
  Productive cough, All grades: 3 (18) n (%)
  Productive cough, Grade ≥3: 0 n (%)
  Pyrexia, All grades: 8 (47) n (%)
  Pyrexia, Grade ≥3: 1 (6) n (%)
  Sinus tachycardia, All grades: 3 (18) n (%)
  Sinus tachycardia, Grade ≥3: 0 n (%)
  Thrombocytopenia, All grades: 3 (18) n (%)
  Upper respiratory tract infection, All grades: 3 (18) n (%)
  Upper respiratory tract infection, Grade ≥3: 1 (6) n (%)
  Vision blurred, All grades: 0 n (%)
  Vision blurred, Grade ≥3: 0 n (%)
  Vomiting, All grades: 10 (59) n (%)
  Vomiting, Grade ≥3: 0 n (%)
  Weight decreased, All grades: 3 (18) n (%)
  Weight decreased, Grade ≥3: 0 n (%)
  Peripheral neuropathies NEC, All grades: 2 (12) n (%)
  Peripheral neuropathies NEC, Grade ≥3: 0 n (%)
Schedule B, n=17, 1 DLT
  Thrombocytopenia, Grade ≥3: 1 (6) ^a n (%)
Both schedules
  Treatment-related deaths: no treatment-related deaths
overall, both schedules
  Peripheral neuropathy rate: 11%
Schedule A
  Grade ≥3 anemia: 19%
  Patients who discontinued due to occurrence of an AE: 2 n
  Patients with SAEs considered related to pevonedistat: four
  Patients with serious AEs (SAEs): 30%
Schedule B
  Grade ≥3 neutropenia: 12%
  Grade ≥3 pneumonia: 12%
  Patients who discontinued due to occurrence of an AE: 1 n
  Patients with serious AEs (SAEs): 47%
